In ChEMBL document CHEMBL5143573, “Cyclohumulanoid Sesquiterpenes Induced by the Noncompetitive Coculture of Phellinus orientoasiaticus and Xylodon flaviporus” (J Nat Prod, 2022):

Columns and labels:
Caco-2 = assay: Cytotoxicity against human Caco-2 cells assessed as reduction in cell viability at 10 to 100 uM incubated for 48 hrs by MTT assay; type: toxicity, cell-based; conditions: caco-2, 48 h, dose 10-100 µM
RAW264.7 [1] = assay: Antiinflammatory activity in mouse RAW264.7 cells assessed as inhibition of LPS-induced NO production incubated for 20 hrs by Griess reagent based assay; type: functional, cell-based; conditions: dose 10-100 µM, DDE = dose-dependent effect
RAW264.7 [2] = assay: Cytotoxicity against LPS-stimulated mouse RAW264.7 cells assessed as reduction in cell viability at 10 to 100 uM incubated for 20 hrs by MTT assay; type: toxicity, cell-based; conditions: raw264.7, 20 h, dose 10-100 µM
RAW264.7 [3] = assay: Antiinflammatory activity in mouse RAW264.7 cells assessed as inhibition of LPS-induced NO production at 100 uM incubated for 20 hrs by Griess reagent based assay relative to control; type: functional

Structure (SMILES)	Activity (Caco-2)	Activity (RAW264.7 [1])	Activity (RAW264.7 [2])	inhibition at 100 µM (RAW264.7 [3]) [%]
CC1=C2C[C@@](C)(C(=O)O)C[C@H]2C[C@@H](CO)C12CC2	Non-Toxic	Dde	Non-Toxic	–
C[C@H]1CC[C@H](CO)C(CO)=C2[C@H]1CC(C)(C)[C@@H]2O	Non-Toxic	Dde	Non-Toxic	–
CC1=C2C[C@@](C)(C(=O)O)C[C@H]2C[C@]2(CO)CC[C@]12O	Non-Toxic	Dde	Non-Toxic	–
C[C@H]1CC[C@H](CO)[C@H](CO)C2=C[C@](C)(CO)C[C@H]21	Non-Toxic	Dde	Non-Toxic	38
CC1=C2C[C@@](C)(C(=O)O)C[C@H]2C[C@]2(C)CC[C@]12O	Non-Toxic	Dde	Non-Toxic	–
CC1=C(CO)[C@H](C)C[C@@H]2C[C@](C)(C(=O)O)C=C12	Non-Toxic	Dde	Non-Toxic	34.8
CC1=C2C[C@@](C)(C(=O)O)C[C@H]2C[C@]2(C)C[C@H](O)[C@]12O	Non-Toxic	Dde	Non-Toxic	36.4
